Experimental data as given in patent USRE47302E1 (ONYX THERAPEUTICS INC., priority 2013, dated 2019).
Values after ≈ are worked out from the molar mass of the structure shown. Read-outs that look alike come from different tables or passages of the source.

Columns and labels:
Solubility pH 7 = settings: pH 7, aqueous buffer
[1] = molecular target: T1, proteasome subunit β5 (beta5) (Homo sapiens, UniProt P28074); experiment: Proteasome active-site ELISA (ProCISE), beta5, MOLT-4 lysate; type: biochemical
T1 construct: Lysate from the human acute lymphoblastic leukemia cell line, MOLT-4; endogenous in cells; host or cells: MOLT-4
Experimental: (§1) Test compounds were serially diluted in DMSO at 100× concentration, then diluted to 10× in aqueous hypotonic lysis buffer. Lysate from the human acute lymphoblastic leukemia cell line, MOLT-4, was treated for 1 hour at 25° C. with compound at a final 1× concentration. […] Following, lysate was denatured in guanidine hydrochloride, and subunits bound to probe were isolated with streptavidin-conjugated sepharose beads. Individual subunits (e.g., β5, LMP7, LMP2, MECL-1) were probed with subunit-specific primary antibodies, followed by HRP-conjugated secondary antibodies. A chemiluminescent substrate was used to generate signal associated with HRP binding, which was detected on a plate reader. Luminescent signal was normalized to protein content, then, percent activity calculated relative to DMSO-treated controls to generate IC50 curves.

[2] = molecular target: T2, immunoproteasome subunit LMP7 (Homo sapiens, UniProt P28062); experiment: Proteasome active-site ELISA (ProCISE), LMP7, MOLT-4 lysate; type: biochemical
T2 construct: Lysate from the human acute lymphoblastic leukemia cell line, MOLT-4; endogenous in cells; host or cells: MOLT-4
Experimental: as §1

[3] = read-out: ProCISE beta5 MOLT4 lysate Hu 1 h CONT: IC50, MOLT4 lysate, human, 1 h continuous treatment, 25° C.
[4] = read-out: ProCISE LMP7 MOLT4 lysate Hu 1 h CONT: IC50, 1 h continuous treatment, 25° C.
[5] = MOLT4 lysate, human, 1 h continuous treatment, 25° C.
[6] = MOLT4 lysate, 1 h continuous treatment, 25° C.

Row | solubility (Solubility pH 7) | IC50 [1, 3] | IC50 [2, 4] | IC50 [1, 5] | IC50 [2, 6] | SMILES | IC50 [1]
1 | 457 µg/mL (≈ 0.769 mM) | 205 nM | 16.8 nM | – | – | COc1ccc(C[C@H](NC(=O)[C@@H](C)NC(=O)[C@H]2CC[C@H](O)CC2)C(=O)N[C@@H](Cc2ccc(C)cc2)C(=O)[C@@]2(C)CO2)cc1 [Compound C-1190] | –
2 | > 10000 µg/mL | – | – | 266 nM | 20.1 nM | COc1ccc([C@@H](O)[C@H](NC(=O)[C@H](CO)NC(=O)CN2CCOCC2)C(=O)N[C@@H](CC2=CCCC2)C(=O)[C@@]2(C)CO2)cc1 [Compound C-1144, (2S,3R)-N-((S)-3-(cyclopent-1-en-1-yl)-1-((R)-2-methyloxiran-2-yl)-1-oxopropan-2-yl)-3-hydroxy-2-((S)-3-hydroxy-2-(2-morpholinoacetamido)propanamido)-3-(4-methoxyphenyl)propanamide] | –
3 | 230 µg/mL (≈ 0.414 mM) | – | – | 289 nM | 9.07 nM | COc1ccc(C[C@H](NC(=O)[C@H](C)NC(=O)CN2CCOCC2)C(=O)N[C@@H](CC2=CCCC2)C(=O)[C@H]2CO2)cc1 [Compound C-1038, (S)-N-((S)-3-(cyclopent-1-en-1-yl)-1-((R)-oxiran-2-yl)-1-oxopropan-2-yl)-3-(4-methoxyphenyl)-2-((S)-2-(2-morpholinoacetamido)propanamido)propanamide] | –
4 | 10600 µg/mL (≈ 18.9 mM) | – | – | 1390 nM | 833 nM | C[C@H](NC(=O)CN1CCOCC1)C(=O)N[C@@H](Cc1cc[n+]([O-])cc1)C(=O)N[C@@H](CC1CCCC1)C(=O)[C@@]1(C)CO1 [Compound C-1119, 4-((S)-3-(((S)-3-cyclopentyl-1-((R)-2-methyloxiran-2-yl)-1-oxopropan-2-yl)amino)-2-((S)-2-(2-morpholinoacetamido)propanamido)-3-oxopropyl)pyridine 1-oxide] | –
5 | 2590 µg/mL (≈ 4.75 mM) | – | – | 5240 nM | 5150 nM | COc1ccc(C[C@H](NC(=O)[C@H](C)NC(=O)CN2CCOCC2)C(=O)N[C@@H](CC2CC2)C(=O)[C@@]2(C)CO2)cc1 [Compound C-1006, (S)-N-((S)-3-cyclopropyl-1-((R)-2-methyloxiran-2-yl)-1-oxopropan-2-yl)-3-(4-methoxyphenyl)-2-((S)-2-(2-morpholinoacetamido)propanamido)propanamide] | –
6 | 2670 µg/mL (≈ 4.72 mM) | 581 nM | 82.1 nM | – | – | COc1ccc(C[C@H](NC(=O)[C@H](C)NC(=O)[C@H]2CCCN2C)C(=O)N[C@@H](Cc2ccccc2)C(=O)[C@@]2(C)CO2)cc1 [Compound C-1164] | –
7 | 1130 µg/mL (≈ 1.93 mM) | – | – | 1750 nM | 59.9 nM | COc1ccc(C[C@H](NC(=O)[C@@H](C)NC(=O)[C@H]2CC[C@](C)(O)CC2)C(=O)N[C@@H](CC2=CCCC2)C(=O)[C@@]2(C)CO2)cc1 [Compound C-1087, (1r,4R)-N-((R)-1-(((S)-1-(((S)-3-(Cyclopent-1-en-1-yl)-1-((R)-2-methyloxiran-2-yl)-1-oxopropan-2-yl)amino)-3-(4-methoxyphenyl)-1-oxopropan-2-yl)amino)-1-oxopropan-2-yl)-4-hydroxy-4-methylcyclohexanecarboxamide] | –
8 | 2140 µg/mL (≈ 3.67 mM) | – | – | 1810 nM | 209 nM | C[C@H](NC(=O)CN1CCOCC1)C(=O)N[C@@H](Cc1ccc2[nH]ncc2c1)C(=O)N[C@@H](CC1CCCC1)C(=O)[C@@]1(C)CO1 [Compound C-1070, (S)-N-((S)-3-cyclopentyl-1-((R)-2-methyloxiran-2-yl)-1-oxopropan-2-yl)-3-(1H-indazol-5-yl)-2-((S)-2-(2-morpholinoacetamido)propanamido)propanamide] | –
9 | 1650 µg/mL (≈ 2.95 mM) | – | – | 788 nM | 92.1 nM | COc1ccc(C[C@H](NC(=O)[C@@H](C)NC(=O)[C@H]2CC[C@@H](O)C2)C(=O)N[C@@H](CC2CCCC2)C(=O)[C@@]2(C)CO2)cc1 [Compound C-1075, (1S,3R)-N-((R)-1-(((S)-1-(((S)-3-cyclopentyl-1-((R)-2-methyloxiran-2-yl)-1-oxopropan-2-yl)amino)-3-(4-methoxyphenyl)-1-oxopropan-2-yl)amino)-1-oxopropan-2-yl)-3-hydroxycyclopentanecarboxamide] | –
10 | 790 µg/mL (≈ 1.43 mM) | – | – | 526 nM | 155 nM | COc1ccc(C[C@H](NC(=O)[C@H](C)NC(=O)[C@@H]2CCCO2)C(=O)N[C@@H](Cc2ccccc2)C(=O)[C@@]2(C)CO2)cc1 [Compound C-1167, (S)-N-((S)-1-(((S)-3-(4-methoxyphenyl)-1-(((S)-1-((R)-2-methyloxiran-2-yl)-1-oxo-3-phenylpropan-2-yl)amino)-1-oxopropan-2-yl)amino)-1-oxopropan-2-yl)tetrahydrofuran-2-carboxamide] | –
11 | 3030 µg/mL (≈ 5.08 mM) | 874 nM | 161 nM | – | – | COc1ccc(C[C@H](NC(=O)[C@@H](CO)NC(=O)CN2CCOCC2)C(=O)N[C@@H](Cc2ccccc2)C(=O)[C@@]2(C)CO2)cc1 [Compound C-1158] | –
12 | 2050 µg/mL (≈ 3.49 mM) | – | – | 2230 nM | 34.6 nM | COc1ccc([C@@H](O)[C@H](NC(=O)[C@@H](C)NC(=O)[C@H]2CC[C@H](O)CC2)C(=O)N[C@@H](CC2CCCC2)C(=O)[C@@]2(C)CO2)cc1 [Compound C-1079, (1r,4R)-N-((R)-1-(((2S,3R)-1-(((S)-3-cyclopentyl-1-((R)-2-methyloxiran-2-yl)-1-oxopropan-2-yl)amino)-3-hydroxy-3-(4-methoxyphenyl)-1-oxopropan-2-yl)amino)-1-oxopropan-2-yl)-4-hydroxycyclohexanecarboxamide] | –
13 | 2350 µg/mL (≈ 3.75 mM) | – | – | 409 nM | 45.3 nM | COc1ccc(C[C@H](NC(=O)[C@@H](NC(=O)CN2CCOCC2)C2COC2)C(=O)N[C@@H](CC2=CCCCC2)C(=O)[C@@]2(C)CO2)cc1 [Compound C-1138, (S)-N-((S)-3-(Cyclohex-1-en-1-yl)-1-((R)-2-methyloxiran-2-yl)-1-oxopropan-2-yl)-3-(4-methoxyphenyl)-2-((S)-2-(2-morpholinoacetamido)-2-(oxetan-3-yl)acetamido)propanamide] | –
14 | 130 µg/mL (≈ 0.225 mM) | 43.4 nM | 10.5 nM | – | – | COc1ccc(C[C@H](NC(=O)[C@@H](C)NC(=O)[C@H]2CC[C@@H](O)CC2)C(=O)N[C@@H](Cc2ccccc2)C(=O)[C@@]2(C)CO2)cc1 [Compound C-1187] | –
15 | 8190 µg/mL (≈ 14 mM) | – | – | 1840 nM | 158 nM | COc1ccc(C[C@H](NC(=O)[C@H](C)NC(=O)CN2CCOCC2)C(=O)N[C@@H](CC2=CCCC2)C(=O)[C@@]2(C)CO2)cc1O [Compound C-1085, (S)-N-((S)-3-(cyclopent-1-en-1-yl)-1-((R)-2-methyloxiran-2-yl)-1-oxopropan-2-yl)-3-(3-hydroxy-4-methoxyphenyl)-2-((S)-2-(2-morpholinoacetamido)propanamido)propanamide] | –
16 | 4250 µg/mL (≈ 7.13 mM) | 678 nM | 24.7 nM | – | – | COc1ccc(C[C@H](NC(=O)[C@@H](C)NC(=O)[C@H]2CC[C@H](O)CC2)C(=O)N[C@@H](Cc2ccc(O)cc2)C(=O)[C@@]2(C)CO2)cc1 [Compound C-1191] | –
17 | 54.4 µg/mL (≈ 0.093 mM) | – | – | 402 nM | 46.2 nM | CCc1ccc(C[C@H](NC(=O)[C@H](C)NC(=O)CN2CCOCC2)C(=O)N[C@@H](CC2=CCCC2)C(=O)[C@@]2(C)CO2)cc1O [Compound C-1136, (S)-N-((S)-3-(cyclopent-1-en-1-yl)-1-((R)-2-methyloxiran-2-yl)-1-oxopropan-2-yl)-3-(4-ethyl-3-hydroxyphenyl)-2-((S)-2-(2-morpholinoacetamido)propanamido)propanamide] | –
18 | – | – | – | 4050 nM | 60.5 nM | COc1ccc(C[C@H](NC(=O)[C@@H](C)NC(=O)[C@H]2CC[C@H](O)CC2)C(=O)N[C@@H](CC2CCCC2)C(=O)[C@@]2(C)CO2)cc1 [Compound C-1064, (1r,4R)-N-((R)-1-(((S)-1-(((S)-3-cyclopentyl-1-((R)-2-methyloxiran-2-yl)-1-oxopropan-2-yl)amino)-3-(4-methoxyphenyl)-1-oxopropan-2-yl)amino)-1-oxopropan-2-yl)-4-hydroxycyclohexanecarboxamide] | –
19 | – | – | – | 1180 nM | 25.2 nM | COc1ccc([C@@H](O)[C@H](NC(=O)[C@@H](C)NC(=O)[C@H]2CC[C@H](O)CC2)C(=O)N[C@@H](CC2=CCCC2)C(=O)[C@@]2(C)CO2)cc1 [Compound C-1080, (1r,4R)-N-((R)-1-(((2S,3R)-1-(((S)-3-(cyclopent-1-en-1-yl)-1-((R)-2-methyloxiran-2-yl)-1-oxopropan-2-yl)amino)-3-hydroxy-3-(4-methoxyphenyl)-1-oxopropan-2-yl)amino)-1-oxopropan-2-yl)-4-hydroxycyclohexanecarboxamide] | –

Row | SMILES | solubility (Solubility pH 7) | IC50 [1, 3] | IC50 [2, 4] | IC50 [1, 5] | IC50 [2, 6] | IC50 [1]
20 | COc1ccc(C[C@H](NC(=O)[C@@H](C)NC(=O)[C@H]2CC[C@H](O)CC2)C(=O)N[C@@H](CC2CC=CC2)C(=O)[C@@]2(C)CO2)cc1 [Compound C-1074, (1r,4R)-N-((R)-1-(((S)-1-(((S)-3-(cyclopent-3-en-1-yl)-1-((R)-2-methyloxiran-2-yl)-1-oxopropan-2-yl)amino)-3-(4-methoxyphenyl)-1-oxopropan-2-yl)amino)-1-oxopropan-2-yl)-4-hydroxycyclohexanecarboxamide] | 1150 µg/mL (≈ 2.02 mM) | – | – | – | 26.2 nM | 778 nM
